Assay results published in patent US6362319B1, “Glial cell line-derived neurotrophic factor” (Amgen Inc., priority 1991, dated 2002).

Columns and labels:
[1] = system: GABA neurons in mesencephalic cultures; assay: 14C-GABA uptake in mesencephalic cultures; type: cell-based, rat; conditions: 1 mM inhibitor
Method: FIGS. 21A-C depicts the specificity of GDNF to dopaminergic neurons. Cultures were established as described in Example 1B. GDNF was added on the day of plating. A. ^3H-DA uptake was measured after seven days in vitro. B. ^14C-GABA uptake was measured after eight days in vitro. Cells were incubated and treated as for ^3H-DA uptake, except the uptake buffer consists of Kreb-Ringer's phosphate buffer, pH 7.4, containing 5.6 mM glucose, 1.3 mM EDTA, 10 μM amino-oxyacetic acid (to prevent GABA breakdown), 2 mM β-alanine (to inhibit glia uptake of GABA) and 0.1 μM ^14C-GABA (150 mCi/mmole, New England Nuclear, Boston, Mass.). In the presence of 1 mM diaminobutyric acid (DABA), a potent inhibitor of ^14C-GABA uptake into GABA neurons, the ^14C-uptake was reduced to 10%. Control values in the presence of DABA were subtracted from experimental values.
H^3-dopamine (^3H-DA) and ^14C-GABA uptake were measured in sister cultures of mesencephalic cells which had been grown with various concentrations of GDNF for 15 and 16 days, respectively. As described above, GDNF enhanced the ^3H-DA uptake capacity of mesencephalic dopamine neurons ˜150% over control without GDNF (FIG. 21A). […] This is also illustrated by the increase in the ^3H-DA/^14C-GABA uptake ratio calculated (FIG. 21C).

[2] = system: serotonergic neurons in rat embryo mesencephalic cultures; assay: 3H-serotonin uptake in mesencephalic cultures; type: cell-based; conditions: 10 μM inhibitor
Method: FIGS. 24A-B depicts the specificity of GDNF to dopaminergic neurons. Cultures were prepared as described in Example 1B. GDNF was added on the day of plating, and uptake was measured after 6 days in vitro. A depicts dopamine uptake and B depicts serotonin uptake.
In the presence of 10 μM citalpram (obtained from Dr. C. Mytilineou, Mount Sinai School of Medicine), a known potent inhibitor of serotonin uptake in serotonin neurons, the ^3H-serotonin uptake was reduced to 15%.

[3] = biological target: monoamine transporter on dopaminergic neurons (Rattus norvegicus, UniProt P23977); conditions: 0.5 mM inhibitor in uptake buffer
Chain of monoamine transporter on dopaminergic neurons (P23977 whole entry): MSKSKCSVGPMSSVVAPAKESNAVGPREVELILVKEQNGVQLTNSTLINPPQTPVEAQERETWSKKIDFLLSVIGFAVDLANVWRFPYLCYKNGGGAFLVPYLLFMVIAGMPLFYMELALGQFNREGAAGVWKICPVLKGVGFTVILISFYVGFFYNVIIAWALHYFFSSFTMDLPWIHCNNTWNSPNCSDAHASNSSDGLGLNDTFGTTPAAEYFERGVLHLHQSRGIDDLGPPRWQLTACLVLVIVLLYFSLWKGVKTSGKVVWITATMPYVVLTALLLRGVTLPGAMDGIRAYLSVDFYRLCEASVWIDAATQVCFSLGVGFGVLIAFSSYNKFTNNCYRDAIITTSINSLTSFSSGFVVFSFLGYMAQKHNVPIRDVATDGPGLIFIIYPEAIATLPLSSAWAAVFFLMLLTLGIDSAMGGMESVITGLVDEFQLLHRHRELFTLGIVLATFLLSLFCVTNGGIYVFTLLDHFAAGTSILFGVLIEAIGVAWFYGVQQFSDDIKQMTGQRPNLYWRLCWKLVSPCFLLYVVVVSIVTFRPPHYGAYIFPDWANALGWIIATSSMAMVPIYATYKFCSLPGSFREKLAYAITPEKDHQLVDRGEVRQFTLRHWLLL
From the text: The functional status of the dopaminergic neurons may be assayed in these cultures by measuring dopamine uptake through specific “scavenger” transporters in the dopaminergic neurons and by counting the number of neurons positive for the dopamine synthetic enzyme tyrosine hydroxylase using immunohistochemistry.

[4] = system: serotonergic neurons in rat embryo mesencephalic cultures; conditions: Casper et al. 1991; cited from earlier work
[5] = system: dopaminergic neurons in rat embryo (E16) mesencephalic cell cultures; conditions: Casper et al. 1991; cited from earlier work
[6] = system: GABA neurons in mesencephalic cultures; conditions: Casper et al. 1991; cited from earlier work

NCCC(N)C(=O)O (stereo not drawn) [diaminobutyric acid (DABA), diaminobutyric acid, reference compound]
14C-uptake remaining in presence of inhibitor [1]: 10%

CN(C)CCCC1(c2ccc(F)cc2)OCc2cc(C#N)ccc21 (stereo not drawn) [citalpram, reference compound]
3H-serotonin uptake remaining in presence of inhibitor [2]: 15%

Fc1ccc(C(OCCN2CCN(CCCc3ccccc3)CC2)c2ccc(F)cc2)cc1 [GBR12909]
blank 3H-DA uptake as % of uptake in untreated control cultures [3]: less than 5%

epidermal growth factor (NSDSECPLSHDGYCLHDGVCMYIEALDKYACNCVVGYIGERCQYRDLKWWELR; Epidermal growth factor; UniProt P01133 971-1023, looked up) [EGF, non-specific factor increasing dopamine, serotonin and GABA uptake]
effect on serotonin uptake [4]: increase serotonin uptake | effect on dopamine uptake [5]: increase dopamine uptake | effect on GABA uptake [6]: increase
